Experimental data published in US5364876A, “Omega-[2-(alkyl)phenyl]-2-aminoalkanoic acids as antagonists of excitatory amino acid receptors” (Guilford Pharmaceuticals Inc., priority 1992, dated 1994).
Values joined by “and” are separate entries in the source; they are usually repeats but may differ in a detail not shown here. Identical values can stand only once.

How the values were obtained:
[1] = system: NMDA receptors; settings: U.S. Pat. No. 4,657,899; cited from earlier work
[2] = system: kainate receptors; settings: U.S. Pat. No. 4,657,899, Table I; cited from earlier work
[3] = target: KA receptors (kainic acid-induced currents); experiment: Inhibition of KA-induced currents in rat brain mRNA-injected Xenopus oocytes; format: cell-based; settings: Xenopus oocytes injected with rat brain mRNA; IC50 converted to Ki by Cheng-Prusoff equation
Procedure: (§1) Defolliculated oocytes obtained from Xenopus laevis females were injected with 30-75 ng of poly (A+) mRNA obtained from 21-day old male Sprague-Dawley rats. Oocytes were placed individually in […] of antibiotic-supplemented modified Barthes solution (MBS, containing in mM: NaCl, 88; KCl, 1.0; NaHCO3, 2.4; HEPES, 10;MgSO4, 0.82; Ca(NO3)2, 0.33) in 96-well sterile plates and cultured for 48-120 hours prior to experimentation. Oocytes were inspected every 24 hours at which time the bathing solution is replaced with fresh MBS.
(§2) For electrophysiological studies, oocytes were positioned in a small recording chamber ([…]) and superfused with antibiotic free MBS supplemented with CaCl2 (final concentration=1.4 mM). Oocytes are impaled with a single glass microelectrode, voltage clamped at -60 to -70 mV, and perfused by gravity feed at a rate of […] at room temperature. […] Antagonists are coperfused with agonists. MBS used in NMDA assays were prepared from "glycine-free", deionized water
(§3) Potencies to inhibit kainic acid-, AMPA- and […] currents are determined from concentration-response curves. IC50 values are converted to Ki values for comparison purposes using the Cheng-Prusoff equation.

[4] = target: KA receptor; experiment: KA receptor ligand binding; design: species or system rat
[5] = target: GLU (NMDA receptors); experiment: GLU receptor ligand binding (NMDA receptors); settings: read-out: Receptor Potency (Ki), GLU
[6] = target: AMPA receptors; experiment: [3H]AMPA displacement binding; settings: for Ki: [3H]AMPA displacement, read-out: Receptor Potency (Ki), AMPA
[7] = target: T1, strychnine insensitive glycine site (Rattus norvegicus, UniProt P35439); experiment: Strychnine insensitive glycine binding; settings: read-out: Receptor Potency (Ki), Glycine
T1 construct: from tissue

[8] = target: AMPA receptors (AMPA-induced currents); experiment: Inhibition of AMPA-induced currents in rat brain mRNA-injected Xenopus oocytes; format: cell-based; settings: Xenopus oocytes injected with rat brain mRNA; IC50 converted to Ki by Cheng-Prusoff equation
Procedure: as §1, §2, §3

[9] = target: CNQX labeled non-NMDA receptors; experiment: CNQX-labeled non-NMDA receptor binding; settings: read-out: Receptor Potency (Ki), CNQX

Row | Compound | NMDA antagonist activity [1] | binding affinity for kainate receptors [2] | Ki, inhibition of KA-induced currents [3] | Ki [5] [µM] | Ki [7] [µM] | other results
1 | NC(Cc1ccccc1CCP(=O)(O)O)C(=O)O (stereo not drawn) [2-amino-3-[2-(2-phosphonoethyl)phenyl]propanoic acid] | antagonists of NMDA | very low binding affinity |  |  |  | 
2 | NC(Cc1ccccc1CCCP(=O)(O)O)C(=O)O (stereo not drawn) [2-amino-3-[2-(3-phosphonopropyl)phenyl]propanoic acid] | antagonists of NMDA | very low binding affinity |  |  |  | 
3 | NC(Cc1ccccc1CP(=O)(O)O)C(=O)O (stereo not drawn) [2-amino-3-[2-phosphonomethylphenyl]propanoic acid] | antagonists of NMDA | very low binding affinity |  |  |  | 
4 | NC(CCCc1ccccc1CP(=O)(O)O)C(=O)O (stereo not drawn) [2-amino-5-[2-phosphonomethylphenyl]pentanoic acid] | antagonists of NMDA | very low binding affinity |  |  |  | 
5 | NC(Cc1cc(F)ccc1CCC(=O)O)C(=O)O (stereo not drawn) [Example 5a] |  |  | > 50 µM | > 300 | 41 | Receptor Potency (Ki), KA [4]: 475 µM; Ki [6]: 168 µM
6 | NC(Cc1cc(Cl)ccc1CCC(=O)O)C(=O)O (stereo not drawn) [Example 5b] |  |  | 32 µM | > 300 | 9 | Ki [8]: 96 µM; Receptor Potency (Ki), KA [4]: 506 µM; selectivity for AMPA versus NMDA receptors ([6]; Ki GLU >300 μM versus Ki AMPA 51 μM): at least six-fold selective; Ki [6]: 51 µM
7 | Cc1cc(C)c(CCC(=O)O)c(C[C@H](N)C(=O)O)c1 [Example 5c, 3,5-Dimethyl-2-(2'-carboxyethyl)phenylalanine] |  |  | 84 µM | > 1000 | 211 | 
8 | Cc1ccc(CCCC(=O)O)c(C[C@H](N)C(=O)O)c1 [Example 26, 5-Methyl-2-(3'-carboxypropyl) phenylalanine] |  |  | 13 µM and 13.3 µM | > 1000 | 2400 | Ki [9]: 8.4 µM
